Experimental data from US8877748B2, “Heterocyclic fused anthraquinone derivatives, manufacturing method and pharmaceutical composition using thereof” (National Defense Medical Center, priority 2012, dated 2014).
Where two headings read alike, the source gives them in different places.

What was measured:
MDA, -MB-435 = test: NCI one-dose screening, breast cancer MDA, -MB-435; type: cell-based, human; conditions: 10 μM; listed under Melanoma
SNB-19 = test: NCI one-dose screening, CNS cancer SNB-19; type: cell-based, human; conditions: 10 μM
HCT-15 = test: NCI one-dose screening, colon cancer HCT-15; type: cell-based, human; conditions: 10 μM
human tumor cell lines = test: NCI one-dose screening, Mean / Delta / Range of growth percent over all tested cell lines; type: cell-based; conditions: 10 μM
OVCAR-3 = test: NCI one-dose screening, ovarian cancer OVCAR-3; type: cell-based, human; conditions: 10 μM
SK-MEL-2 = test: NCI one-dose screening, melanoma SK-MEL-2; type: cell-based, human; conditions: 10 μM
HL-60, TB = test: NCI one-dose screening, leukemia HL-60, TB; type: cell-based, human; conditions: 10 μM
K562cell line = test: NCI one-dose screening, leukemia K562; type: cell-based, human; conditions: 10 μM
SK-MEL-28 = test: NCI one-dose screening, melanoma SK-MEL-28; type: cell-based, human; conditions: 10 μM
U251 = test: NCI one-dose screening, CNS cancer U251; type: cell-based, human; conditions: 10 μM
COLO 205 = test: NCI one-dose screening, colon cancer COLO 205; type: cell-based, human; conditions: 10 μM
OVCAR-4 = test: NCI one-dose screening, ovarian cancer OVCAR-4; type: cell-based, human; conditions: 10 μM
HCT-116 = test: NCI one-dose screening, colon cancer HCT-116; type: cell-based, human; conditions: 10 μM
CAKI-1 = test: NCI one-dose screening, renal cancer CAKI-1; type: cell-based, human; conditions: 10 μM
NCI-H23 = test: NCI one-dose screening, non-small cell lung cancer NCI-H23; type: cell-based, human; conditions: 10 μM
[1] = NCI one-dose screening, renal cancer A489; type: cell-based, human; conditions: 10 μM
HOP-92 = test: NCI one-dose screening, non-small cell lung cancer HOP-92; type: cell-based, human; conditions: 10 μM
MDA-MB-231/ATCC = test: NCI one-dose screening, breast cancer MDA-MB-231/ATCC; type: cell-based, human; conditions: 10 μM
CCRF-CEM = test: NCI screening platform one-dose single concentration screening, leukemia CCRF-CEM; type: cell-based, human; conditions: 10 μM
PRMI-8226 cell line = test: NCI one-dose screening, leukemia PRMI-8226; type: cell-based, human; conditions: 10 μM
SF-268 = test: NCI one-dose screening, CNS cancer SF-268; type: cell-based, human; conditions: 10 μM
MCF7 = test: NCI one-dose screening, breast cancer MCF7; type: cell-based, human; conditions: 10 μM
NCI-H460 = test: NCI one-dose screening, non-small cell lung cancer NCI-H460; type: cell-based, human; conditions: 10 μM
A549/ATCC = test: NCI one-dose screening, non-small cell lung cancer A549/ATCC; type: cell-based, human; conditions: 10 μM
NCI-H522 = test: NCI one-dose screening, non-small cell lung cancer NCI-H522; type: cell-based, human; conditions: 10 μM
MALME-3M = test: NCI one-dose screening, melanoma MALME-3M; type: cell-based, human; conditions: 10 μM
M14 = test: NCI one-dose screening, melanoma M14; type: cell-based, human; conditions: 10 μM
RXF, 393 = test: NCI one-dose screening, renal cancer RXF, 393; type: cell-based, human; conditions: 10 μM
SN12C = test: NCI one-dose screening, renal cancer SN12C; type: cell-based, human; conditions: 10 μM
SNB-75 = test: NCI one-dose screening, CNS cancer SNB-75; type: cell-based, human; conditions: 10 μM
PC-3 = test: NCI one-dose screening, prostate cancer PC-3; type: cell-based, human; conditions: 10 μM
HS 578-T = test: NCI one-dose screening, breast cancer HS 578-T; type: cell-based, human; conditions: 10 μM; Breast cancer
UACC-62 = test: NCI one-dose screening, melanoma UACC-62; type: cell-based, human; conditions: 10 μM
LOX IMVI = test: NCI one-dose screening, melanoma LOX IMVI; type: cell-based, human; conditions: 10 μM
UACC-257 = test: NCI one-dose screening, melanoma UACC-257; type: cell-based, human; conditions: 10 μM
SF-539 = test: NCI one-dose screening, CNS cancer SF-539; type: cell-based, human; conditions: 10 μM
UO-31 = test: NCI one-dose screening, renal cancer UO-31; type: cell-based, human; conditions: 10 μM
NCl/ADR-RES = test: NCI one-dose screening, breast cancer NCl/ADR-RES; type: cell-based, human; conditions: 10 μM; listed under Ovarian cancer
NCI-H322M = test: NCI one-dose screening, non-small cell lung cancer NCI-H322M; type: cell-based, human; conditions: 10 μM; Non-small cell lung cancer
OVCAR-8 = test: NCI one-dose screening, ovarian cancer OVCAR-8; type: cell-based, human; conditions: 10 μM
SK-MEL-5 = test: NCI one-dose screening, melanoma SK-MEL-5; type: cell-based, human; conditions: 10 μM
HCC-2998 = test: NCI one-dose screening, colon cancer HCC-2998; type: cell-based, human; conditions: 10 μM
SK-OV-3 = test: NCI one-dose screening, ovarian cancer SK-OV-3; type: cell-based, human; conditions: 10 μM
MOLT-4 = test: NCI one-dose screening, leukemia MOLT-4; type: cell-based, human; conditions: 10 μM
HOP-62 = test: NCI one-dose screening, non-small cell lung cancer HOP-62; type: cell-based, human; conditions: 10 μM
BT-549 = test: NCI one-dose screening, breast cancer BT-549; type: cell-based, human; conditions: 10 μM
DU145 = test: NCI one-dose screening, prostate cancer DU145; type: cell-based, human; conditions: 10 μM
MDA-MB-468 = test: NCI one-dose screening, breast cancer MDA-MB-468; type: cell-based, human; conditions: 10 μM
[2] = test system: PC-3 prostate cancer cell line; test: SRB assay cell viability, PC-3 prostate cancer cell line; type: cell-based, human; conditions: Homo sapiens
786-O = test: NCI one-dose screening, renal cancer 786-O; type: cell-based, human; conditions: 10 μM
TK-10 = test: NCI one-dose screening, renal cancer TK-10; type: cell-based, human; conditions: 10 μM
IGROV1 = test: NCI one-dose screening, ovarian cancer IGROV1; type: cell-based, human; conditions: 10 μM
SR = test: NCI one-dose screening, leukemia SR; type: cell-based, human; conditions: 10 μM
KM12 = test: NCI one-dose screening, colon cancer KM12; type: cell-based, human; conditions: 10 μM
T-47D = test: NCI one-dose screening, breast cancer T-47D; type: cell-based, human; conditions: 10 μM
SF-295 = test: NCI one-dose screening, CNS cancer SF-295; type: cell-based, human; conditions: 10 μM

O=C1c2ccccc2C(=O)c2c1cc(SCc1ccccc1)c1nsnc21 [C21, 4-(benzyl-thio)anthra[2,1-c][1,2,5] thiadiazol-6,11-dione]
Growth Percent MDA-MB-435 (MDA, -MB-435): −48.29%
Growth Percent SNB-19 (SNB-19): 94.26%
Growth Percent HCT-15 (HCT-15): 54.72%
Growth Percent Delta (human tumor cell lines; delta over all cell lines): 136.92%
Growth Percent Mean (human tumor cell lines; mean over all cell lines): 51.63%
Growth Percent Range (human tumor cell lines; range over all cell lines): 215.19%
Growth Percent OVCAR-3 (OVCAR-3): 25.27%
Growth Percent SK-MEL-2 (SK-MEL-2): −3.95%
Growth Percent HL-60(TB) (HL-60, TB): 70.32%
Growth Percent K562 (K562cell line): 10.51%
Growth Percent SK-MEL-28 (SK-MEL-28): 95.00%
Growth Percent U251 (U251): 30.51%
Growth Percent COLO 205 (COLO 205): 102.93%
Growth Percent OVCAR-4 (OVCAR-4): −68.15%
Growth Percent HCT-116 (HCT-116): 53.06%
Growth Percent CAKI-1 (CAKI-1): 73.77%
Growth Percent NCI-H23 (NCI-H23): 101.09%
Growth Percent A498 [1]: 88.61%
Growth Percent HOP-92 (HOP-92): 83.65%
Growth Percent MDA-MB-231/ATCC (MDA-MB-231/ATCC): −13.36%
Growth Percent CCRF-CEM (CCRF-CEM): 0.65%
Growth Percent RPMI-8226 (PRMI-8226 cell line): 43.23%
Growth Percent SF-268 (SF-268): 56.01%
Growth Percent MCF7 (MCF7): 56.44%
Growth Percent NCI-H460 (NCI-H460): 98.44%
Growth Percent A549/ATCC (A549/ATCC): 101.64%
Growth Percent NCI-H522 (NCI-H522): 92.01%
Growth Percent MALME-3M (MALME-3M): 80.81%
Growth Percent M14 (M14): 86.54%
Growth Percent RXF 393 (RXF, 393): 68.12%
Growth Percent SN12C (SN12C): 66.11%
Growth Percent SNB-75 (SNB-75): 39.58%
Growth Percent PC-3 (PC-3): 38.44%
Growth Percent HS 578T (HS 578-T): 59.96%
Growth Percent UACC-62 (UACC-62): 43.08%
Growth Percent LOX IMVI (LOX IMVI): 7.49%
Growth Percent UACC-257 (UACC-257): 58.86%
Growth Percent SF-539 (SF-539): 68.26%
Growth Percent UO-31 (UO-31): 73.75%
Growth Percent NCI/ADR-RES (NCl/ADR-RES): 62.34%
Growth Percent NCI-H322M (NCI-H322M): 55.30%
Growth Percent OVCAR-8 (OVCAR-8): 6.01%
Growth Percent SK-MEL-5 (SK-MEL-5): 22.53%
Growth Percent HCC-2998 (HCC-2998): 115.02%
Growth Percent SK-OV-3 (SK-OV-3): 80.29%
Growth Percent MOLT-4 (MOLT-4): −20.97%
Growth Percent HOP-62 (HOP-62): 94.98%
Growth Percent BT-549 (BT-549): 96.19%
Growth Percent DU145 (DU145): 82.23%
Growth Percent MDA-MB-468 (MDA-MB-468): −85.29%
IC50 ([2]; PC-3 prostate cancer cell line, Table II prints no unit, μM printed, read-out: SRB assay: 50% inhibition of cancer cell proliferation of sample concentration (IC50) of PC-3 prostate cancer cell line): > 15 µM
IC50 ([2]; PC-3 prostate cancer cells, read-out: IC50 in PC-3 prostate cancer cells (cell viability analysis)): > 15 µM
Growth Percent 786-0 (786-O): 92.60%
Growth Percent TK-10 (TK-10): 129.90%
Growth Percent IGROV1 (IGROV1): 43.88%
Growth Percent SR (SR): 1.25%
Growth Percent KM12 (KM12): 103.02%
Growth Percent T-47D (T-47D): −46.11%
Growth Percent SF-295 (SF-295): 91.56%
